Assay results as given in publication PMC12648656, “Palladium(II) Complexes with Noncovalent Interactions with DNA: Solution Speciation Controlled by Solvent Identity, pH, and Concentration” (Inorganic Chemistry, 2025).
Converted amounts (≈) assume the structure as drawn. Where two headings read alike, the source gives them in different places.

Legend:
[1] = tested on: Colo 205 human colon cancer cell line; test: In vitro cytotoxicity, MTT; format: cell-based; conditions: Colo 205, 72 h exposure
Protocol: (§1) Cell culture reagents were obtained from Merck, and plasticware was obtained from Sarstedt. Human colon adenocarcinoma cell line Colo 205 (ATCC CCL-222) and MCF7 (ATCC HTB-22) breast cancer cells were purchased from LGC Promochem. Cancer cells were cultured in RPMI 1640 medium supplemented with 10% heat-inactivated fetal bovine serum, 2 mM L-glutamine, and 1 mM sodium pyruvate and buffered with 100 mM HEPES. The cells were incubated at 37 °C in a 5% CO2, 95% air atmosphere and were detached with Trypsin-Versene (EDTA) solution for 5 min at 37 °C.
(§2) The tested ligands were dissolved in DMSO, and the stock solutions (5 mM) were diluted in complete culture medium. Two-fold serial dilutions of compounds were made in 100 μL of the medium, horizontally. The semiadherent colon adenocarcinoma cells were treated with Trypsin-Versene (EDTA) solution. They were adjusted to a density of 1 × 10^4 cells in 100 μL of RPMI 1640 medium and were added to each well, with the exception of the medium control wells. The final volume of the wells containing compounds and cells was 200 μL. The plates containing the cells were incubated at 37 °C for 72 h; at the end of the incubation period, 20 μL of MTT solution (5 mg/mL) was added to each well. After incubation at 37 °C for 4 h, 100 μL of sodium dodecyl sulfate solution (10% in 0.01 M HCl) was added to each well, and the plates were further incubated at 37 °C overnight. Cell growth was determined by measuring the optical density (OD) at 540 and 630 nm with a Multiskan EX plate reader (Thermo Labsystems).
(§3) Curves for the data obtained on cancer cells were fitted by GraphPad Prism software using the sigmoidal dose–response model (comparing variable and fixed slopes). The IC50 values were always obtained from at least three independent experiments.

[2] = tested on: MCF7 human breast cancer cell line; test: In vitro cytotoxicity, MTT; format: cell-based; conditions: Homo sapiens; MCF7, 72 h exposure
Protocol: as §1, §2, §3

[3] = Spectrophotometric (UV-vis) pH titrations for proton dissociation constants; format: physicochemical; conditions: I = 0.10 M (KCl), 25.0 °C
Protocol: Spectrophotometric titrations were applied to study the equilibrium processes (proton dissociation and complex dissociation/formation) in DMSO/H2O mixtures due to the limited aqueous solubility of the compounds. The calibration of the electrode system was performed by strong acid–strong base pH-potentiometric titrations in 30% (v/v) and 60% (v/v) DMSO/H2O solvent mixtures at 25.0 ± 0.1 °C as described in our previous works. , KCl (0.1 M) was the supporting electrolyte to maintain constant ionic strength, which refers to the chloride ion concentration in blood plasma. […] The initial sample volume was 5 mL. Spectrophotometric titrations were performed in the pH range 1.8–12.5 for 30% (v/v) DMSO/H2O medium and 1.8–14.0 for 60% (v/v) DMSO/H2O medium. Prior to the titrations, purified argon was passed through the samples for approximately 10 min to remove CO2 traces, and argon was also passed over the samples during these measurements. The proton dissociation constants were calculated by using the computer program PSEQUAD.

[4] = n-Octanol/water and n-octanol/Tris buffer shake-flask partitioning; format: physicochemical
Protocol: The distribution coefficient values (D 7.4) of the compounds were determined by the traditional shake-flask method in n-octanol/buffered aqueous solution at pH 7.40 for 5 mM Tris HCl with 0.1 M KCl and at pH 7.4 at 25.0 ± 0.2 °C. The ligand and complexes were dissolved in n-octanol (presaturated by the aqueous buffer) because of the very low aqueous solubility. The aqueous buffer solution and n-octanol ratio was 1:1 due to the expected high lipophilicity of the compounds. First, samples were mixed with vertical rotation (∼20 rpm) for 3 h, and then the two phases were separated by centrifugation at 3000 rpm (∼1000g) for 3 min. After separation, UV–vis spectra of the compounds were recorded in both phases. Spectra of the n-octanol phases were compared to those of the original n-octanol stock solutions.
The distribution coefficient values were also determined using unbuffered water and octanol (also presaturated) with a ratio of 1:1.

[5] = tested on: Enterococcus faecalis (ATCC 29212); test: Antibacterial MIC, broth dilution; format: cell-based
Protocol: (§4) Antibacterial activity was determined for the title compounds in various Gram-negative and Gram-positive bacterial strains, namely Klebsiella pneumoniae, Escherichia coli (ATCC 25922), Staphylococcus aureus (272123), methicillin-resistant Staphylococcus aureus (ATCC 43300), and Enterococcus faecalis (ATCC 29212). The stock solutions of the tested compounds were prepared in DMSO at a 5 mM concentration. […] All stock solutions were diluted in 100 μL of Mueller Hinton Broth, and then two-fold serial dilutions were performed. Then, a 10^–4 dilution of an overnight bacterial culture in 100 μL of medium was added to each well, except for the medium control wells. The highest concentration of the compounds in the tested samples was 100 μM. The plates were incubated at 37 °C for 18 h. After that, the MIC values were determined by visual inspection.

[6] = tested on: Escherichia coli (ATCC 25922); test: Antibacterial MIC, broth dilution; format: cell-based
Protocol: as §4

Klebsiella pneumoniae = test: Antibacterial MIC, broth dilution; format: cell-based; conditions: 18 h
Protocol: as §4

[7] = tested on: Staphylococcus aureus (272123); test: Antibacterial MIC, broth dilution; format: cell-based; conditions: 18 h
Protocol: as §4

[8] = tested on: methicillin-resistant Staphylococcus aureus (ATCC 43300); test: microbe, parasite or virus in culture; format: cell-based; conditions: 18 h
Protocol: as §4

Solubility observations = format: physicochemical; conditions: as observed; aqueous solution for HL
calf thymus-DNA (CT-DNA) [9] = test: Viscometry with CT-DNA; format: binding; conditions: compound/DNA ratios 0.0 to 1.0; 5 mM Tris, 100 mM NaCl, pH 7.40, 25.0 °C
Protocol: […] Then, the samples were incubated at 37 °C and with constant shaking at 300 rpm for 10 min and 1 h. After each incubation, the viscosity was measured at a constant temperature of 25.0 ± 0.2 °C in a vibrational viscometer. The relative viscosity was calculated by taking the mean values of three replicate measurements, and the values were represented by plotting the values of relative viscosity of CT-DNA (η/η0)^1/3 against 1/R.

[10] = target: T1, hen egg white lysozyme (HEWL) (Gallus gallus, UniProt P00698); test: Reaction with lysozyme followed by UV-vis at 280 nm, pseudo-first-order kinetics; format: binding; conditions: metal:protein 3:1, 5 mM Tris/3% DMSO, 37 °C, absorbance at 280 nm
T1 construct: a model protein, namely HEWL (hen egg white lysozyme), was also studied; from tissue; host or cells: hen egg white (from the protein's name)
Protocol: The interaction of complexes (2) and (3) with hen egg white lysozyme (HEWL) was investigated using a 10^–5 M solution of the protein. Lysozyme is a widely used model protein for studying the binding of potential metallodrugs. The sample preparation for this assay was carried out using the same protocol of the samples for the DNA interactions studies by UV–vis spectrophotometry. The integrity of the enzyme was checked in each experiment, with a comparison of fresh and incubated samples. UV–vis spectra were recorded before and after incubation with the complex (dissolved in 97% 5 mM Tris/3% DMSO) for 24 h at 37 °C. A metal to protein ratio of 3:1 was used for these studies, a ratio that affords similar results to 10:1 and eases the sample preparation. The experimental time-dependent profiles of the spectra were analyzed as pseudo-first-order reactions by plotting the variation of the absorbance as a function of time.

glutathione (GSH) = test: Reaction with glutathione followed by UV-vis; conditions: 30-fold GSH, ~20 μM complex, 60% (v/v) DMSO/phosphate buffer pH 7.4, 25.0 °C
Protocol: Reactions between the title compounds and GSH were also followed by UV–vis spectrophotometry under an inert atmosphere to overcome oxidation of GSH by air oxygen. Samples contained the metal complexes at low concentrations (∼20 μM) and were prepared using 60% (v/v) DMSO/phosphate buffer solution (pH 7.4) to avoid precipitation. The reactants were separated in the pockets of a tandem cuvette, followed by deoxygenation by argon bubbling. The separate solutions were mixed at 1:30 metal complex:GSH molar ratios, and UV–vis spectra were recorded. Argon was continuously passed over the sample during the whole measurement.

calf thymus-DNA (CT-DNA) [11] = test: UV-vis titration with CT-DNA; format: binding; conditions: complex/DNA ratio 0 to 0.79; 5 mM Tris, 50 mM NaCl, pH 7.40, 25 °C
Protocol: To investigate the potential binding ability of the palladium complexes (2) and (3) with DNA, UV–vis titrations (240 to 700 nm) were performed at room temperature. During the titrations, the CT-DNA concentration (5.08 × 10^–5 M) was kept constant, while the concentration of each complex (0 to 2.00 × 10^–5 M) was varied. The changes in the typical absorbance of CT-DNA at 260 nm were monitored after equilibration (10 min) and after 1 h of incubation at 37 °C. […] Control experiments with DMSO were performed, and no changes in the CT-DNA spectrum were observed.

pBR322 plasmid DNA = test: Agarose gel electrophoresis mobility shift; format: binding; conditions: r i 0.01 to 0.20, 24 h, 37 °C
Protocol: Complexes (2) and (3) were incubated at 37 °C with a concentration of 0.0625 μg/μL pBR322 plasmid DNA at different concentrations expressed as r i = complex:DNA (base pair) ratio. The r i used was from 0.01 to 0.20, in a total volume of 20 μL. After an incubation period of 24 h, the mobility of the complex-treated pBR322 samples was analyzed by gel electrophoresis at 70 V in Tris/acetate/EDTA buffer. A control of pBR322 was also incubated, and a 1 kb ladder aliquot was loaded into lane 1 of the gel. The gel was stained with an ethidium bromide aqueous solution, and DNA bands were visualized with a UV-transilluminator UVITEC Cambridge UVIDOC HD2 instrument. The studies were performed with 3% (v/v) DMSO as the final solution.

[12] = Enterococcus faecalis, ATCC29212, 18 h
[13] = Escherichia coli, ATCC25922, 18 h
[14] = Staphylococcus aureus, ATCC 43300 / MRSA

T1 sequence (P00698 19-147): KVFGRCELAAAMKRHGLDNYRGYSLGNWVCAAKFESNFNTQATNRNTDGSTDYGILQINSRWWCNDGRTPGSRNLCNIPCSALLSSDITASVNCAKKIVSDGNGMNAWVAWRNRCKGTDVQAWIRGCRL

Molecule: COc1cccc2c1C(=O)c1c(O)c3c(c(O)c1C2=O)C[C@@](O)(C(=O)CO)C[C@@H]3O[C@H]1C[C@H](N)[C@H](O)[C@H](C)O1 [Doxorubicin, reference compound]
- IC50 ([1]; Homo sapiens): 158 ± 4 nM
- IC50 [2]: 128 ± 0.9 nM

Molecule: S=C(N/N=C/c1c[nH]cn1)Nc1ccc(Cl)cc1 [HL, 1H-Imidazole-4-carboxaldehyde(4N-p-chlorophenyl)thiosemicarbazone]
- pKa ([3]; 30% (v/v) DMSO/H2O solvent mixture, 30% (v/v) DMSO/H2O, read-out: pKa1): 4.38 ± 0.03
- pKa ([3]; 30% (v/v) DMSO/H2O solvent mixture, 30% (v/v) DMSO/H2O, read-out: pKa2): 10.96 ± 0.04
- pKa ([3]; 60% (v/v) DMSO/H2O solvent mixture, 60% (v/v) DMSO/H2O, read-out: pKa1): 3.81 ± 0.02
- pKa ([3]; 60% (v/v) DMSO/H2O solvent mixture, 60% (v/v) DMSO/H2O, read-out: pKa2): 11.12 ± 0.01
- pKa ([3]; pure water (0% DMSO), predicted value, 0% DMSO (pure water), predicted value, read-out: pKa1): 4.58
- pKa ([3]; pure water (0% DMSO), predicted value, 0% DMSO (pure water), predicted value, read-out: pKa2): 10.9
- logD ([4]; n-octanol/Tris HCl buffer, pH 7.4, n-octanol/5 mM Tris HCl with 0.1 M KCl, pH 7.40, 25.0 °C, read-out: log D o/t): 1.58
- logD ([4]; n-octanol/pure (unbuffered) water, 1:1, read-out: log D o/w): 0.9
- IC50 ([1]; Homo sapiens): 19100 ± 600 nM
- IC50 [2]: 2970 ± 320 nM
- MIC [5, 12]: 100 µM (≈ 28 µg/mL)
- MIC [6, 13]: 25 µM (≈ 6.99 µg/mL)
- MIC (Klebsiella pneumoniae; Klebsiella pneumoniae): > 100 µM
- MIC ([7]; Staphylococcus aureus): 100 µM (≈ 28 µg/mL)
- MIC [8, 14]: 50 µM (≈ 14 µg/mL)
- solubility (Solubility observations): poor solubility

Molecule: O=C(O)c1cn(C2CC2)c2cc(N3CCNCC3)c(F)cc2c1=O [ciprofloxacin, reference compound]
- MIC [5, 12]: 1.89 µM (≈ 0.625 µg/mL)
- MIC [6, 13]: 0.235 µM (≈ 0.078 µg/mL)
- MIC (Klebsiella pneumoniae; Klebsiella pneumoniae): 0.235 µM (≈ 0.078 µg/mL)
- MIC ([7]; Staphylococcus aureus): 1.89 µM (≈ 0.625 µg/mL)
- MIC [8, 14]: > 15.1 µM

Molecule: CC[n+]1c(-c2ccccc2)c2cc(N)ccc2c2ccc(N)cc21 [ethidium bromide]
- effect on relative viscosity of CT-DNA (calf thymus-DNA (CT-DNA) [9]): increases the dynamic viscosity

Molecule: CNC(C)C1CCC(N)C(OC2C(N)CC(N)C(OC3OCC(C)(O)C(NC)C3O)C2O)O1 (stereo not drawn) [gentamicin, reference compound]
- MIC [5, 12]: 10.5 µM (≈ 5 µg/mL)
- MIC [6, 13]: 5.24 µM (≈ 2.5 µg/mL)
- MIC (Klebsiella pneumoniae; Klebsiella pneumoniae): 2.62 µM (≈ 1.25 µg/mL)
- MIC ([7]; Staphylococcus aureus): 10.5 µM (≈ 5 µg/mL)
- MIC [8, 14]: > 10.5 µM

Molecule: Chlorido(dimethyl sulfoxide)(1H-imidazole-4-carboxaldehyde-4N-p-chlorophenylthiosemicarbazonato)palladium(II) [(3)]
- IC50 [1]: 16200 ± 1180 nM
- observed rate constant k obs [10]: (8.75 ± 0.09) × 10^–5 s^–1
- MIC ([5]; E. faecalis, 18 h, 37 °C): > 100 µM
- MIC ([6]; E. coli, 18 h, 37 °C): > 100 µM
- MIC (Klebsiella pneumoniae; K. pneumoniae, 37 °C): > 100 µM
- MIC ([7]; S. aureus, 37 °C): > 100 µM
- MIC ([8]; S. aureus (MRSA), 37 °C): > 100 µM
- time to equilibrium of the reaction with GSH (glutathione (GSH)): ≤ 30 min
- change of CT-DNA absorption at 260 nm (calf thymus-DNA (CT-DNA) [11]): absorption values of DNA–complex samples increase
- effect on electrophoretic mobility of supercoiled pBR322 (pure form) (pBR322 plasmid DNA): small unwinding
